Measured values taken from PubChem BioAssay (NCI).
Values joined by “and” are separate entries in the source; they are usually repeats but may differ in a detail not shown here. Identical values can stand only once.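 Cultured in 96-well plates, cells were exposed to test compound for 48 hours across five concentrations. GI50: concentration for 50% inhibition of growth. TGI: concentration producing complete growth inhibition.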

Tests used:
Experiment in all cases: DTP human tumour cell line panel, 48 h
HCT-15 colon = system: HCT-15 colon
MDA-MB-435 = system: MDA-MB-435
K-562 leukemia = system: K-562 leukemia
TK-10 renal = system: TK-10 renal
PC-3 prostate = system: PC-3 prostate
SW-620 colon = system: SW-620 colon
DU-145 prostate = system: DU-145 prostate
EKVX NSCLC = system: EKVX NSCLC
SK-OV-3 ovarian = system: SK-OV-3 ovarian
MDA-MB-231 breast = system: MDA-MB-231 breast

| SMILES | TGI (HCT-15 colon) | TGI (MDA-MB-435) [µM] | TGI (K-562 leukemia) | TGI (TK-10 renal) | TGI (PC-3 prostate) | TGI (SW-620 colon) [µM] | TGI (DU-145 prostate) [µM] | TGI (EKVX NSCLC) | TGI (SK-OV-3 ovarian) [µM] | TGI (MDA-MB-231 breast) | GI50 (HCT-15 colon) | GI50 (MDA-MB-435) [µM] | GI50 (K-562 leukemia) [µM] | GI50 (TK-10 renal) [µM] | GI50 (PC-3 prostate) | GI50 (SW-620 colon) [µM] | GI50 (DU-145 prostate) [µM] | GI50 (EKVX NSCLC) [µM] | GI50 (SK-OV-3 ovarian) [µM] | GI50 (MDA-MB-231 breast) [µM] |
| --- | --- | --- | --- | --- | --- | --- | --- | --- | --- | --- | --- | --- | --- | --- | --- | --- | --- | --- | --- | --- |
| O=C1NC(=O)C2=C1CCC2O (stereo not given) | > 100 µM | > 100 | > 100 µM | > 100 µM | > 100 µM | > 100 | > 100 | > 100 µM | > 100 | > 100 µM | – | – | – | – | – | – | – | – | – | – |
| C=C1C(=O)O[C@H]2[C@H]1CC/C(COC(=O)/C=C/c1cccnc1)=C\CC[C@@]1(C)O[C@@H]21 | 2.71 µM | 5.14 | 6.13 µM | 4.06 µM | 22.1 µM | 2.35 | 3.01 | 14.3 µM | 53 | 5.04 µM | 1.11 µM | 1.83 | 1.04 | 2.01 | 8.28 µM | 0.467 | 1.39 | 3.28 | 16.4 | 2 |
| O=C(O)CSCC(=O)c1ccccc1 | > 100 µM | > 100 | > 100 µM | > 100 µM | > 100 µM | > 100 | > 100 | > 100 µM | > 100 | > 100 µM | – | – | – | – | – | – | – | – | – | – |
| O=C(O)C1CCCN1Cc1c[nH]c2ccccc12 (stereo not given) | > 100 µM | > 100 | > 100 µM | > 100 µM | > 100 µM | > 100 | > 100 | > 100 µM | > 100 | > 100 µM | – | – | – | – | – | – | – | – | – | – |
| O=C(Oc1cccc(Nc2ncnc3ccccc23)c1)c1ccccc1Cl | 46.6 µM | > 100 | > 100 µM | 37.8 µM | 45.9 µM | 49.2 | > 100 | 91.5 µM | > 100 | 36 µM | 18.9 µM | 41.6 | 43.1 | 8.72 | 17.8 µM | 21.8 | 22.3 | 7.4 | 66.8 | 14.3 |
| O=C(CSc1nc2ccc([N+](=O)[O-])cc2[nH]1)Nc1cccc(C(F)(F)F)c1 | 12.7 µM | 12.8 | > 39.8 µM | 10.9 µM | 11.9 µM | 14.6 | 15 | 9.94 µM | 5.86 | 6.65 µM | 2.74 µM | 2.5 | 2.16 | 3.14 | 2.47 µM | 3.13 | 3.54 | 1.84 | 1.66 | 2.13 |
| COc1cccc2c(Nc3ccc(C(=O)NCCNCCO)cc3)cc(-c3ccccc3)nc12 | > 100 µM | 75.5 | 64.9 µM | > 100 µM | > 100 µM | > 100 | > 100 | > 100 µM | > 100 | 73.5 µM | 12.2 µM | 27.8 | 22.3 | 30.2 | 35.4 µM | 37.7 | 58.7 | > 100 | 86.7 | 25.5 |
| CC(=O)C(C(=N)C#N)C(=O)Nc1ccccc1 (stereo not given) | > 100 µM | > 100 | > 100 µM | > 100 µM | > 100 µM | > 100 | > 100 | > 100 µM | > 100 | > 100 µM | – | – | – | – | – | – | – | – | – | – |
| Cc1c(C(=O)CCl)c(=O)n(-c2ccccc2)n1C | 15.5 µM | 11.5 | 17.3 µM | 15.2 µM | 37.5 µM | 8.54 | 5.36 | 29.1 µM | 74.5 | 27.9 µM | 3.59 µM | 2.57 | 2.76 | 3.81 | 11.4 µM | 2.7 | 2.22 | 12.4 | 16.4 | 11.2 |
| Cc1c2ncccc2c(C)c2c1[nH]c1ccc(O)cc12 | 17.6 µM and 40 µM | 20.9 | 20.9 µM and 50.4 µM | 25.9 µM and 61.6 µM | 13.7 µM and 12.2 µM | 39.9 | 17.9 | 17.3 µM and 63 µM | 11.4 | 19.2 µM and 54.4 µM | 6.16 µM and 6.53 µM | – | 5.04 | 17.4 | 7.27 µM and 5.01 µM | 7.83 | 5.31 | 1.01 | – | 7.26 |
| Cc1c(C(=O)N/N=C/c2ccc(O)cc2)nnn1-c1ccnc2c(C(F)(F)F)cccc12 | > 100 µM | > 100 | > 100 µM | > 100 µM | > 100 µM | > 100 | > 100 | > 100 µM | 76.7 | 48.4 µM | > 100 µM | > 100 | > 100 | > 100 | > 100 µM | > 100 | > 100 | > 100 | 27.2 | 12.7 |
| COc1ccc(/C=C/C(=O)/C=C(/C=C/c2ccc(OC)c(OC)c2)OB(F)F)cc1OC | 1.12 µM | 3.89 | > 100 µM | 9.48 µM | 7.51 µM | 2.33 | 2.84 | > 100 µM | 12.1 | 4.08 µM | 0.286 µM | 0.522 | 0.463 | 1.25 | 1.05 µM | 0.373 | 1.12 | 1.04 | 2.98 | 0.621 |
| Cn1cc(-c2nc(-c3c[nH]c4ncccc34)cs2)c2cc(Cl)ccc21 | > 100 µM | > 100 | 15.2 µM | > 100 µM | > 100 µM | > 100 | > 100 | > 100 µM | > 100 | 54.1 µM | 2.34 µM | 3.47 | 2.76 | 5.78 | 3.62 µM | 5.3 | 5.67 | 0.678 | 16.1 | 2.65 |
| COc1ccc(C(=O)c2cc(OC)c(OC)c(OC)c2)cc1/C=C/C(=O)c1ccc(O)cc1 | 7.42 µM | 11.3 | > 100 µM | 28.5 µM | 4.71 µM | 10.2 | 3.45 | 19.4 µM | > 100 | 24.9 µM | 2.15 µM | 1.18 | 0.357 | 11.8 | 1.69 µM | 2.51 | 1.88 | 4.55 | 16.3 | 4.02 |
| CC1=C(C(=O)Nc2ccc(F)c(Cl)c2)C(c2cccc(O)c2)NC(=S)N1 (stereo not given) | > 50 µM | 28.9 | 42.5 µM | > 50 µM | > 50 µM | > 50 | > 50 | > 50 µM | > 50 | 30.2 µM | 47.8 µM | 11.6 | 16 | > 50 | 32.1 µM | 20.6 | > 50 | 17.8 | 16.8 | 10.9 |
| CC(C)(C)[Si](C)(C)OC1[C@@H](O[Si](C)(C)C(C)(C)C)[C@@H](CNC(=O)NC(=O)NC(=O)CI)O[C@H]1n1cnc2c(NC(=O)Nc3ccccc3)ncnc21 (stereo not given in full) | 31.8 µM | 20.8 | 8.5 µM | 1.05 µM | 3.42 µM | 12.6 | 20 | 1.14 µM | 27.9 | 0.995 µM | 9.81 µM | 7.83 | 3.55 | 0.21 | 0.385 µM | 3.38 | 8.67 | 0.236 | 10.4 | 0.251 |
| O=P(Oc1ccccc1)(Oc1ccccc1)C(O)c1ccccc1 (stereo not given) | > 100 µM | > 100 | > 100 µM | > 100 µM | > 100 µM | > 100 | > 100 | > 100 µM | > 100 | > 100 µM | > 100 µM | 74 | 46.8 | > 100 | 35.8 µM | > 100 | > 100 | 26.5 | > 100 | 71.3 |
| O=C(Nc1ncc([N+](=O)[O-])s1)c1cccc([N+](=O)[O-])c1 | > 100 µM | 20.9 | > 40 µM | 37.3 µM | > 100 µM | > 100 | > 100 | > 100 µM | 35.7 | 54.5 µM | 6.11 µM | 3.16 | 2.49 | 4.59 | 2.99 µM | 6.04 | 9.89 | 2.8 | 3.72 | 5.12 |
| CCOC(=O)c1[nH]c2cccc3c2c1CC(Br)C3=O (stereo not given) | 18.8 µM | 25.2 | – | 28.1 µM | 33 µM | 5.41 | 30.4 | 32.2 µM | 54.7 | 33.6 µM | – | – | – | – | – | – | – | – | – | – |
| COc1cccc(-c2nc(-c3ccc(NS(=O)(=O)c4ccccc4)cc3)[nH]c2-c2ccnc(Br)c2)c1 | – | 9.21 | > 100 µM | > 100 µM | 16.9 µM | > 100 | > 100 | 9.06 µM | > 100 | 45.8 µM | – | 2.51 | 2.6 | 3.72 | 2.39 µM | 2.83 | 3.69 | 2.25 | 3.04 | 3.23 |
